The values below are quoted from earlier work in US12303597B2, “Naloxone formulations for sublingual and/or buccal administration” (Pharmaceutical Productions, Inc., priority 2019, dated 2025).

Structures can show the parent of a compound that is named as a salt. Where two headings read alike, the source gives them in different places.

As to `C=CCN1CC[C@]23c4c5ccc(O)c4O[C@H]2C(=O)CC[C@@]3(O)[C@H]1C5` [naloxone base, 17-allyl-4,5α-epoxy-3,14-dihydroxymorphinan-6-one], the solubility in water entry is listed as “insoluble in water”. Turning to `C=CCN1CC[C@]23c4c5ccc(O)c4O[C@H]2C(=O)CC[C@@]3(O)[C@H]1C5` [Naloxone hydrochloride], the solubility in water entry (hydrochloride) is listed as “soluble in water”.
